Legend:
[1] = target: T1, RORγ LBD (Homo sapiens, UniProt P51449); assay: LanthaScreen TR-FRET human RORγ coactivator assay; type: biochemical; details: antagonist mode, read-out: Binding of RORγ LBD, IC50
T1 construct: The assay was performed with GST-tag RORγ LBD (25 ng/reaction, Creative Biomart); purchased Creative Biomart
T1 sequence (P51449 269-508 limits assumed): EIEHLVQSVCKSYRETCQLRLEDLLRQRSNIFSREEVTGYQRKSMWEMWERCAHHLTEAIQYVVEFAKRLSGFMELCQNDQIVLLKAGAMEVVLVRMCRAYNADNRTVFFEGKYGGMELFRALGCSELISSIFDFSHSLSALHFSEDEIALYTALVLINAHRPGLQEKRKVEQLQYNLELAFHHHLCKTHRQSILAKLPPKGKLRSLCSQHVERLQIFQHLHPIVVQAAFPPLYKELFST
Excerpt: In LanthaScreen TR-FRET RORγ coactivator assay, the RORγ LBD was constitutively active and the coactivator peptide (fluorescein-D22) was recruited in the absence of ligand, or compound (Fig. 2a). The binding of an antagonist to RORγ LBD causes a conformational change of the receptor, leading to a decrease in the affinity of the receptor for the coactivator peptide. The separation of the fluorescently labeled coactivator peptide from RORγ LBD from the receptor with the terbium-labeled antibody causes a decrease in the TR-FRET signal compared to those without compound. The assay was validated by detecting the ligand-independent recruitment of coactivator peptide in the presence or absence of RORγ LBD (2.5- to 3-fold assay window). Effects of the key compounds of the novel chemotype in Fig. 1, were tested in LanthaScreen TR-FRET RORγ coactivator assay.
The assay was performed with GST-tag RORγ LBD (25 ng/reaction, Creative Biomart), 0.6 μM Fluorescein-D22 coactivator peptide and 8 nM Tb anti-GST antibody (Invitrogen) at room temperature for 60 minutes. The fluorescent signals were measured with 520 nm emission and 495 nm excitation on Tecan Infinite. The data were calculated using DMSO control as 0% inhibition and non-protein control as 100% inhibition. IC50 values were calculated using non-linear regression analysis of GraphPad Prism in all assays.

[2] = Liver microsomal stability, human; type: in vitro ADME; details: human, liver microsomes, pH 7.4; 1 µM compound, 0.5 mg/ml microsome, NADPH, 37 °C; read-out: Liver microsomal stability, t1/2, Human
Experimental: The compound was mixed with 0.5 mg/ml human liver microsome (Thermal Fisher) at a final concentration of 1 µM in 100 mM potassium phosphate buffer, pH 7.4. The reactions were initiated by the addition of 1 mM NADPH. Samples in duplicate were incubated at 37 °C with mixing. 100 µL aliquots were transferred after 0, 5, 10, 30, 45, 60 minutes to a new tube with 300 µL acetonitrile, incubated on ice for 30 minutes, centrifuged at 1800×g at 4 °C for 10 minutes. The supernatants were transferred to glass vials subjected to LC/MS analysis. Peak areas were measured to calculate half-life according to the formula t1/2 = − 0.693/slope of linear regression analysis of ln [concentration] versus incubation time. Similar methods were applied to access mouse and rat liver microsomal stability of the compounds.

[3] = Oral PK in SD rats; type: in vivo; details: male, rat, plasma, 2 mg/kg oral
Experimental: Compounds were dissolved in 5% DMSO, 5% tween 80 and then added 90% saline. Male SD rats were dosed with the compound via oral (2 mg/kg or 5 mg/kg) routes, respectively after fasting overnight. Blood of the animals were collected at indicated time post dosing. Blood samples were then prepared for plasma and analyzed for the compounds using validated LC/MS assays. The experimental protocol used in this study was approved by IACUC. The experiments were conducted in accordance with the Guiding Principles for the Care and Use of Laboratory Animals and complied with the ARRIVE guidelines.

[4] = system: IMQ-induced psoriasis-like skin inflammation mice; assay: IMQ-induced psoriasis-like skin inflammation model, topical treatment; type: in vivo, BALB/c mice
Experimental: At the end of the study, the mouse plasma and diseased back skin were collected 3 h after topical application for PK analysis.
Psoriasis was induced by topical application of IMQ cream on the shaved dorsal skin as described by Leslie van der Fits et al.[18]. SHR168442 in Vaseline (n = 10 per group) was treated once a day (QD) from 3 days prior to day 1, and then twice a day (BID) from day 1 to day 6. The animal was sacrificed at 3 h after the first dose in the morning of day 7. Erythema, scaling, and thickness of the back skin were scored independently daily on a scale from 0 to 4. Blood and back skin tissues from the study were collected at 3 h (n = 4) post dosing in the morning of […]. The plasma and skin tissues after tape stripping were analyzed for Compound 1 as described above. The in-life portion of the study was carried out at Washington Biotechnology (Baltimore, MD). The housing conditions and in-life procedures were approved by IACUC. The experiments were conducted in accordance with the Guiding Principles for the Care and Use of Laboratory Animals and complied with the ARRIVE guidelines.

[5] = target: T2, ADORA2A (Homo sapiens, UniProt P29274); assay: SAFETYscan47 Calcium Flux; type: cell-based; details: 3 µM
T2 construct: purchased DiscoverX (Eurofins) SAFETYscan47
T2 sequence (P29274 whole entry): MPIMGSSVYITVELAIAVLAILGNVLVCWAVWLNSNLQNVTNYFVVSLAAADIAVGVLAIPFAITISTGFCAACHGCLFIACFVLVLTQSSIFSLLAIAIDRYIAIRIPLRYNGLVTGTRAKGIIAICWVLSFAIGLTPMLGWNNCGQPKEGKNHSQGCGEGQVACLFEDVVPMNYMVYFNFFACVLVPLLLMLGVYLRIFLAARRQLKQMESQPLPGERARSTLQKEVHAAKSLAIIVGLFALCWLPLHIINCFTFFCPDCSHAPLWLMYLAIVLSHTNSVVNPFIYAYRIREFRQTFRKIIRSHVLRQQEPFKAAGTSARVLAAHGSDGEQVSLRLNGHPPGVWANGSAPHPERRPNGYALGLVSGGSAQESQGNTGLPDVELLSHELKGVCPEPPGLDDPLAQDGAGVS
Experimental: (§1) To further profile any off-target activity, we counter-screened SHR168442 in SAFETYscan47 panel, compiled by DiscoverX based on the recommendation by major pharmaceutical companies. SHR168442 was screened at 3 µM in duplicates.

[6] = system: GABAA; assay: SAFETYscan47 Ion Channel; type: cell-based; details: 3 µM
Experimental: as §1

[7] = target: T3, hERG (Homo sapiens, UniProt Q12809); assay: SAFETYscan47 Ion Channel; type: cell-based; details: Blocker; 3 µM
T3 construct: purchased DiscoverX (Eurofins) SAFETYscan47
T3 sequence (Q12809 whole entry): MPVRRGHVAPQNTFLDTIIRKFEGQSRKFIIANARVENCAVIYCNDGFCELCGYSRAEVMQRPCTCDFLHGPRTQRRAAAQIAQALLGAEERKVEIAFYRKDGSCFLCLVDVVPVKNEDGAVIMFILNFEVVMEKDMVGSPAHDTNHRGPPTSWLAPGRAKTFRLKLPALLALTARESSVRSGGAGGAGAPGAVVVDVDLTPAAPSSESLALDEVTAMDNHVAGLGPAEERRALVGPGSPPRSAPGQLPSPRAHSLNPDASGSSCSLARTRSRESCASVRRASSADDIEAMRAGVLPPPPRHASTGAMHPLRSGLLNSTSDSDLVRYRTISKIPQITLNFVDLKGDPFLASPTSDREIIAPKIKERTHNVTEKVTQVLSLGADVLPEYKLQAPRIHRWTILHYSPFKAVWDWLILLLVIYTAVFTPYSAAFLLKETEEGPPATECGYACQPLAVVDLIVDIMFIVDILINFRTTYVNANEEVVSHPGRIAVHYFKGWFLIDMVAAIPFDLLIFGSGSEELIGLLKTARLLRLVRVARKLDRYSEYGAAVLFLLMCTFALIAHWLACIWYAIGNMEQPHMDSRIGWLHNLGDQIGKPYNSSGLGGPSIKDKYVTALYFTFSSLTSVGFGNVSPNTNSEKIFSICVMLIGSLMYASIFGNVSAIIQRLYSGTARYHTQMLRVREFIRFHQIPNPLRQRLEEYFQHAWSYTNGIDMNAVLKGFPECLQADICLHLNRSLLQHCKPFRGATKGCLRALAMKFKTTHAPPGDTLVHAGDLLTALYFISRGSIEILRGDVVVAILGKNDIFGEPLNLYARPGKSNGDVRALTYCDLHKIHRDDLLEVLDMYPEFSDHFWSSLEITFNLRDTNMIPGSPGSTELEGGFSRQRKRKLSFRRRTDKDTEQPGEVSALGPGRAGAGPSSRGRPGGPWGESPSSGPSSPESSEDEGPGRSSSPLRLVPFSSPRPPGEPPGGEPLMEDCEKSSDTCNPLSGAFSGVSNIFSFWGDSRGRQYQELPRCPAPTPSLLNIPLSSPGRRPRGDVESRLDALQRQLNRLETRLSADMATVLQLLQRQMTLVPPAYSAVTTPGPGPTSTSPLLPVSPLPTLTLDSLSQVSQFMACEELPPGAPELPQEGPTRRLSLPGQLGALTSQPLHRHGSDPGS
Experimental: as §1

[8] = system: targets in the SAFETYscan47 panel; assay: SAFETYscan47 panel (DiscoverX), whole panel; details: 3 µM, duplicates, all targets
Experimental: as §1

For `CCS(=O)(=O)c1ccc([C@H](CCO)c2nc3c(Cl)c(N4CCC(F)(F)CC4)c(Cl)cc3[nH]2)cc1` [SHR168442, (S)-3-(4,6-dichloro-5-(4,4-difluoropiperidin-1-yl)-1H-benzo[d]imidazol-2-yl)-3-(4-(ethylsulfonyl)phenyl)propan-1-ol], the IC50 [1] was 35 ± 9 nM, the half-life at 1 µM [2] was 2.3 min and the AUC ([3]; read-out: Exposure in SD Rat, AUC) was 59 ng·h/mL. The Cmax ([3]; read-out: Exposure in SD Rat, Cmax) was 9.5 ng/mL, the half-life ([3]; read-out: Exposure in SD Rat, t1/2 (converted)) was 6.2 h and the “cumulative scores (scaling, erythema, thickness)” value ([4]; 2%, 4% and 8% in Vaseline topical) was “clear dose-dependent reduction”. The scores of erythema ([4]; 4% and 8% topical, day 6, versus vehicle control) was “significantly reduced”, the score of scaling ([4]; 8% in Vaseline topical, days 4 to 6, scale 0 to 4) was < 1.0 and the “exposures in diseased skin and plasma” value ([4]; 3 h after topical application, all treatments) was “high in skin and low in plasma”. The body weight ([4]; all treatment groups) was “no significant body weight loss”, the “% Response Average” value ([5]; Agonist) was 7.3% and the “% Response Replicate 1” value ([5]; Agonist) was 0.0%. The “% Response Replicate 2” value ([5]; Agonist) was 14.7%, the “% Response Average” value ([5]; Antagonist) was 15.1% and the “% Response Replicate 1” value ([5]; Antagonist) was 5.4%. The “% Response Replicate 2” value ([5]; Antagonist) was 24.9%, the “% Response Average” value ([6]; Blocker) was 7.4% and the “% Response Replicate 1” value ([6]; Blocker) was 4.6%. The “% Response Replicate 2” value ([6]; Blocker) was 10.1%, the “% Response Average” value ([6]; Opener) was 2.5% and the “% Response Replicate 1” value ([6]; Opener) was 3.2%. The “% Response Replicate 2” value ([6]; Opener) was 1.9%, the “% Response Average” value [7] was 4.9% and the “% Response Replicate 1” value [7] was 6.5%. For the same molecule, the “% Response Replicate 2” value [7] was 3.2% and the “inhibition of the targets in the SAFETYscan47 panel” value [8] was “below 50%”.
